From patent US20200093103A1, “BREEDING WATER FOR ANGUILLIFORMES AND METHOD FOR REARING ANGUILLIFORMES” (SHIN NIPPON BIOMEDICAL LABORATORIES, LTD., priority 2016, published 2020) come the findings set out here.

The assay has as its system Anguilla japonica leptocephali. The experiment in a line: Induction of Anguilla japonica metamorphosis by T4 treatment in 23° C. breeding water. The class given is in vivo. Also on record: key: L: During life, no characteristics of metamorphosis seen.; Stage 1: Starting phase of metamorphosis. The rostral end is rounded, and intestinal degeneration starts.; Stage 2: Peak phase of metamorphosis. Intestinal degeneration becomes pronounced.; Stage 3: Late phase of metamorphosis.; Stage 4: Pre-glass eel stage. Almost the eel form, but the body height still remains. An excerpt:
Stage 1: Starting phase of metamorphosis. The rostral end is rounded, and intestinal degeneration starts.
Stage 2: Peak phase of metamorphosis. Intestinal degeneration becomes pronounced. In the second half, the anus reaches to near the last vertical blood vessel (VBV last).
Stage 3: Late phase of metamorphosis. The preanal length (PAL) becomes equal to or shorter than the last vertical blood vessel length (VBV last Length) (PAL VBV last Length). The body height is apparently low.
Stage 4: Pre-glass eel stage. Almost the eel form, but the body height still remains. Melanophores on the body surface or endogenous melanophores are not yet seen.
Elver stage: Juvenile stage. Food intake can be identified.
A thyroid hormone (e.g., thyroxine (T4)) is adjusted to 50 to 100 mM in a 1- to 2-mL volume messflask. As a solvent, known solvents (water, alcohol) can be used. Ethanol is preferably used as the solvent.
For example, using ethanol as a solvent, T4 adjusted to 50 mM is diluted 500-fold, 5,000-fold, and 50,000-fold, respectively, and adjusted to […], 1 μM, and 100 nM. A feed can be prepared in this manner.
Artificial seawater is added to a breeding vessel, and 1/1000 of the […] T4 is added to prepare […] T4 breeding water.
Half of the breeding water is replaced every two days with breeding water of the same concentration. In the case where the concentration is changed, for example, in the case of changing from 10 nM to 2 nM, 80% to the breeding water is removed, and unadjusted artificial seawater is newly added to make 1 L.
Leptocephali visually considered to have reached a total length of 40 mm (or may be 30 mm to 50 mm, may be 35 mm to 45 mm, or may also be 35 mm or more, 40 mm or more, or 45 mm or more) are selected, anesthetized with 2-phenoxyethanol, and then photographed, and the total length of each larva is measured using an image analyzing device.
The larvae are placed in 10 nM T4 breeding water and then placed in an incubator set at 23° C., and breeding is started. In first one week, observation is performed every two days, and half of the 10 nM T4 breeding water is replaced each time. The average amount of thyroid hormone in the breeding water in stage 1 is 1 nM to 100 nM, for example, and may also be 3 nM to 30 nM, or 5 nM to 20 nM.
For larvae visually judged to have reached the second half of stage 2, the concentration of the breeding water is changed. The breeding water is diluted 5-fold or 10-fold and adjusted to 2 nM or 1 nM T4, and breeding is continued. The average amount of thyroid hormone in the breeding water in stage 2 may be, as compared with the breeding water of stage 1, diluted 2-fold to 20-fold, diluted 3 to 15-fold, or diluted 5 to 10-fold as described above. The average amount of thyroid hormone in the breeding water in stage 2 is 0.1 nM to 20 nM, for example, and may also be 0.5 nM to 10 nM, 1 nM to 5 nM, or 1 nM to 2 nM.
For larvae visually judged to have reached stage 3, the breeding water is quickly changed 0.2 nM T4 breeding water, which is a 5-fold dilution of 1 nM T4 breeding water, and further changed to 0.1 nM T4 breeding water on the following day. […] Also, in larvae whose anus position has not reached the last vertical hemal spine, when they are judged to be on the brink of stage 3, the concentration is changed as above. The average amount of thyroid hormone in the breeding water in stage 3 may be, as compared with the breeding water of stage 2, diluted 2-fold to 50-fold, diluted 3 to 15-fold, diluted 4 to 6-fold, or diluted 5-fold as described above. The average amount of thyroid hormone in the breeding water in stage 3 is 0.01 nM to 2 nM, for example, and may also be 0.05 nM to 1 nM, 0.1 nM to 0.5 nM, or 0.1 nM to 0.2 nM. […] That is, the concentration may be changed such that the thyroid hormone becomes undetectable in the breeding water in the course of stage 3.
In stage 3, breeding is continuously performed in the 0.1 nM T4 breeding water. […]

For `N[C@@H](Cc1cc(I)c(Oc2cc(I)c(O)c(I)c2)c(I)c1)C(=O)O` [T4, thyroxine], the metamorphosis stage entry was “L” (individual Exp 5-4, 175 days old, total length 43.5 mm at start, c3 onward = treatment days 1,3,5,7,8,9,10,11,12,13,14,15,16,17,18, T4 (nM) 10,10,10,10,2,1,0.2,0.1,0.1,0.1,0.1,0.1, treatment day 1, T4 10 nM); “L” (individual Exp 5-4, 175 days old, total length 43.5 mm at start, c3 onward = treatment days 1,3,5,7,8,9,10,11,12,13,14,15,16,17,18, T4 (nM) 10,10,10,10,2,1,0.2,0.1,0.1,0.1,0.1,0.1, treatment day 3, T4 10 nM); 2 (individual Exp 5-4, 175 days old, total length 43.5 mm at start, c3 onward = treatment days 1,3,5,7,8,9,10,11,12,13,14,15,16,17,18, T4 (nM) 10,10,10,10,2,1,0.2,0.1,0.1,0.1,0.1,0.1, treatment day 5, T4 10 nM); 2 (individual Exp 5-4, 175 days old, total length 43.5 mm at start, c3 onward = treatment days 1,3,5,7,8,9,10,11,12,13,14,15,16,17,18, T4 (nM) 10,10,10,10,2,1,0.2,0.1,0.1,0.1,0.1,0.1, treatment day 7, T4 10 nM); 2 (individual Exp 5-4, 175 days old, total length 43.5 mm at start, c3 onward = treatment days 1,3,5,7,8,9,10,11,12,13,14,15,16,17,18, T4 (nM) 10,10,10,10,2,1,0.2,0.1,0.1,0.1,0.1,0.1, treatment day 8, T4 2 nM); 2 (individual Exp 5-4, 175 days old, total length 43.5 mm at start, c3 onward = treatment days 1,3,5,7,8,9,10,11,12,13,14,15,16,17,18, T4 (nM) 10,10,10,10,2,1,0.2,0.1,0.1,0.1,0.1,0.1, treatment day 9, T4 1 nM). Besides, the metamorphosis stage is given as 2 (individual Exp 5-4, 175 days old, total length 43.5 mm at start, c3 onward = treatment days 1,3,5,7,8,9,10,11,12,13,14,15,16,17,18, T4 (nM) 10,10,10,10,2,1,0.2,0.1,0.1,0.1,0.1,0.1, treatment day 10, T4 0.2 nM); 2 (individual Exp 5-4, 175 days old, total length 43.5 mm at start, c3 onward = treatment days 1,3,5,7,8,9,10,11,12,13,14,15,16,17,18, T4 (nM) 10,10,10,10,2,1,0.2,0.1,0.1,0.1,0.1,0.1, treatment day 11, T4 0.1 nM); 3 (individual Exp 5-4, 175 days old, total length 43.5 mm at start, c3 onward = treatment days 1,3,5,7,8,9,10,11,12,13,14,15,16,17,18, T4 (nM) 10,10,10,10,2,1,0.2,0.1,0.1,0.1,0.1,0.1, treatment day 12, T4 0.1 nM); 3 (individual Exp 5-4, 175 days old, total length 43.5 mm at start, c3 onward = treatment days 1,3,5,7,8,9,10,11,12,13,14,15,16,17,18, T4 (nM) 10,10,10,10,2,1,0.2,0.1,0.1,0.1,0.1,0.1, treatment day 13, T4 0.1 nM); 3 (individual Exp 5-4, 175 days old, total length 43.5 mm at start, c3 onward = treatment days 1,3,5,7,8,9,10,11,12,13,14,15,16,17,18, T4 (nM) 10,10,10,10,2,1,0.2,0.1,0.1,0.1,0.1,0.1, treatment day 14, T4 0.1 nM); 4 (individual Exp 5-4, 175 days old, total length 43.5 mm at start, c3 onward = treatment days 1,3,5,7,8,9,10,11,12,13,14,15,16,17,18, T4 (nM) 10,10,10,10,2,1,0.2,0.1,0.1,0.1,0.1,0.1, treatment day 15, T4 0.1 nM). In addition, the metamorphosis stage entry is “L” (individual Exp 5-5, 174 days old, total length 36.1 mm at start, c3 onward = treatment days 1,3,5,7,8,9,10,11,12,13,14,15,16,17, T4 (nM) 10,10,10,10,10,10,10,2,0.2,0.1,0.1,0.1,0.1,0.1, treatment day 1, T4 10 nM); “L” (individual Exp 5-5, 174 days old, total length 36.1 mm at start, c3 onward = treatment days 1,3,5,7,8,9,10,11,12,13,14,15,16,17, T4 (nM) 10,10,10,10,10,10,10,2,0.2,0.1,0.1,0.1,0.1,0.1, treatment day 3, T4 10 nM); “L” (individual Exp 5-5, 174 days old, total length 36.1 mm at start, c3 onward = treatment days 1,3,5,7,8,9,10,11,12,13,14,15,16,17, T4 (nM) 10,10,10,10,10,10,10,2,0.2,0.1,0.1,0.1,0.1,0.1, treatment day 5, T4 10 nM); “L” (individual Exp 5-5, 174 days old, total length 36.1 mm at start, c3 onward = treatment days 1,3,5,7,8,9,10,11,12,13,14,15,16,17, T4 (nM) 10,10,10,10,10,10,10,2,0.2,0.1,0.1,0.1,0.1,0.1, treatment day 7, T4 10 nM); 2 (individual Exp 5-5, 174 days old, total length 36.1 mm at start, c3 onward = treatment days 1,3,5,7,8,9,10,11,12,13,14,15,16,17, T4 (nM) 10,10,10,10,10,10,10,2,0.2,0.1,0.1,0.1,0.1,0.1, treatment day 8, T4 10 nM); 2 (individual Exp 5-5, 174 days old, total length 36.1 mm at start, c3 onward = treatment days 1,3,5,7,8,9,10,11,12,13,14,15,16,17, T4 (nM) 10,10,10,10,10,10,10,2,0.2,0.1,0.1,0.1,0.1,0.1, treatment day 9, T4 10 nM). Further, the metamorphosis stage (individual Exp 5-5, 174 days old, total length 36.1 mm at start, c3 onward = treatment days 1,3,5,7,8,9,10,11,12,13,14,15,16,17, T4 (nM) 10,10,10,10,10,10,10,2,0.2,0.1,0.1,0.1,0.1,0.1, treatment day 10, T4 10 nM) was 2; the metamorphosis stage (individual Exp 5-5, 174 days old, total length 36.1 mm at start, c3 onward = treatment days 1,3,5,7,8,9,10,11,12,13,14,15,16,17, T4 (nM) 10,10,10,10,10,10,10,2,0.2,0.1,0.1,0.1,0.1,0.1, treatment day 11, T4 2 nM) turned out to be 3; the metamorphosis stage (individual Exp 5-5, 174 days old, total length 36.1 mm at start, c3 onward = treatment days 1,3,5,7,8,9,10,11,12,13,14,15,16,17, T4 (nM) 10,10,10,10,10,10,10,2,0.2,0.1,0.1,0.1,0.1,0.1, treatment day 12, T4 0.2 nM) was determined as 3; the metamorphosis stage (individual Exp 5-5, 174 days old, total length 36.1 mm at start, c3 onward = treatment days 1,3,5,7,8,9,10,11,12,13,14,15,16,17, T4 (nM) 10,10,10,10,10,10,10,2,0.2,0.1,0.1,0.1,0.1,0.1, treatment day 13, T4 0.1 nM) is 3; the metamorphosis stage (individual Exp 5-5, 174 days old, total length 36.1 mm at start, c3 onward = treatment days 1,3,5,7,8,9,10,11,12,13,14,15,16,17, T4 (nM) 10,10,10,10,10,10,10,2,0.2,0.1,0.1,0.1,0.1,0.1, treatment day 14, T4 0.1 nM) was determined as 3; the metamorphosis stage (individual Exp 5-5, 174 days old, total length 36.1 mm at start, c3 onward = treatment days 1,3,5,7,8,9,10,11,12,13,14,15,16,17, T4 (nM) 10,10,10,10,10,10,10,2,0.2,0.1,0.1,0.1,0.1,0.1, treatment day 15, T4 0.1 nM) is given as 3.
